Source: patent US9549949B2, “Antiviral agent” (NBC MESHTEC, INC., priority 2008, dated 2017)
Several values for one entry are separate records, joined by “and”; a condition that tells them apart may be missing. Equal entries are not always repeated. Where two headings read alike, the source gives them in different places.

How the values were obtained:
Format in all cases: cell-based
[1] = test system: influenza virus (influenza A/kitakyusyu/159/93 (H3N2))
[2] = test system: feline calicivirus (F9 strain); experiment: Virus inactivation, plaque assay on CrFK cells; conditions: non-enveloped feline calicivirus, time period as short as 1 minute
[3] = test system: influenza virus (influenza A/kitakyusyu/159/93 (H3N2)); experiment: Virus inactivation, plaque assay on MDCK cells; conditions: enveloped influenza virus, time period as short as 1 minute
[4] = conc. of substance 0.5 mass %, 10 minutes at room temperature, control (PBS) 128
[5] = conc. of substance 5 mass %, 10 minutes at room temperature, control (PBS) 128

| Compound | HA titer [1, 4] | HA titer [1, 5] | HA titer [1] | virus inactivation activity (in words) [2] | virus inactivation activity (in words) [3] |
| --- | --- | --- | --- | --- | --- |
| [I][Sn][I] [Example 7, Tin (II) iodide] | 2 | <2 |  |  |  |
| [Cu].[O]=[Cu] [Example 27, Copper (I) oxide] | 64 | 8 |  |  |  |
| [I][Au] [Example 14, Gold (I) iodide] | 64 | 4 |  |  |  |
| [I][Sb]([I])[I] [Example 3, Antimony (III) iodide] | 32 | 16 |  |  |  |
| [I-].[Tl+] [Example 9, Thallium (I) iodide] | 64 | 32 |  |  |  |
| Silver (I) iodide [Example 20] | 64 | 32 |  |  |  |
| [Cu][Br] [Example 23, Copper (I) bromide] | 32 | <2 |  |  |  |
| [I][Ge]([I])([I])[I] [Example 5, Germanium (IV) iodide] | <2 | <2 |  |  |  |
| [I][Pd][I] [Example 12, Palladium (II) iodide] | 64 | 2 |  |  |  |
| [I-].[I-].[I-].[I-].[Pt+4] [Example 11, Platinum (IV) iodide] | 64 | 32 |  |  |  |
| CC(=O)[O-].[Cu+] [Example 24, Copper (I) acetate] |  |  | <2 |  |  |
| [I-].[I-].[Zn+2] [Example 19, Zinc (II) iodide] | 4 | <2 |  |  |  |
| [Fe+2].[I-].[I-] [Example 16, Iron (II) iodide] | <2 | <2 |  |  |  |
| N#C[S-].[Cu+] [Example 25, Copper (I) thiocyanate] | 64 | 16 |  |  |  |
| [I][In]([I])[I] [Example 21, Indium (III) iodide] | <2 | <2 |  |  |  |
| [I][Ni][I] [Example 18, Nickel (II) iodide] |  |  | <2 and 4 |  |  |
| [Co+2].[I-].[I-] [Example 17, Cobalt (II) iodide] | 8 | <2 |  |  |  |
| [Cu+].[I-] [Example 1, Copper (I) iodide] | 32 | 8 |  | sufficiently high virus inactivation activity | sufficiently high virus inactivation activity |
| [Cl][Cu] [Example 22, Copper (I) chloride] | <2 | <2 |  | sufficiently high virus inactivation activity | sufficiently high virus inactivation activity |
| [I][Ge][I] [Example 6, Germanium (II) iodide] | 2 | <2 |  |  |  |
| [I][Sn]([I])([I])[I] [Example 8, Tin (IV) iodide] | 2 | <2 |  |  |  |
| [I][Bi]([I])[I] [Example 13, Bismuth (III) iodide] | 64 | 8 |  |  |  |
| [I][Ir]([I])([I])[I] [Example 4, Iridium (IV) iodide] | 64 | 32 |  |  |  |
